# Source: the supplement of paper PMC11451515
# Test system: P12-Ichikawa
# Assay: cell viability relative to DMSO control; higher = less cytotoxic
# Conditions: 48 h
# Method in brief: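 NOMO1 or SEM (500 cells/well) or P12-Ichikawa (1000 cells/well) leukemia cells were adapted for at least four passages in each medium. They were seeded in 1536-well plates (5 μl) and pin-dosed with library compounds in DMSO over an 11-point threefold series, 47 μM to 0.79 nM. CellTiter-Glo One luminescence was read after 48 h at 37°C. Viability is the per-plate percentage relative to DMSO wells, with cell-free wells as background.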
# [1] = HPLM + 10% dialyzed FBS, 0.000781 µM
# [2] = HPLM + 10% dialyzed FBS, 0.00234 µM
# [3] = HPLM + 10% dialyzed FBS, 0.00702 µM
# [4] = HPLM + 10% dialyzed FBS, 0.0211 µM
# [5] = HPLM + 10% dialyzed FBS, 0.0632 µM
# [6] = HPLM + 10% dialyzed FBS, 0.19 µM
# [7] = HPLM + 10% dialyzed FBS, 0.569 µM
# [8] = HPLM + 10% dialyzed FBS, 1.71 µM
# [9] = HPLM + 10% dialyzed FBS, 5.12 µM
# [10] = HPLM + 10% dialyzed FBS, 15.4 µM
# [11] = HPLM + 10% dialyzed FBS, 46.1 µM
# [12] = RPMI 5 mM glucose + 10% FBS, 0.000781 µM
# [13] = RPMI 5 mM glucose + 10% FBS, 0.00234 µM
# [14] = RPMI 5 mM glucose + 10% FBS, 0.00702 µM
# [15] = RPMI 5 mM glucose + 10% FBS, 0.0211 µM
# [16] = RPMI 5 mM glucose + 10% FBS, 0.0632 µM
# [17] = RPMI 5 mM glucose + 10% FBS, 0.19 µM
# [18] = RPMI 5 mM glucose + 10% FBS, 0.569 µM
# [19] = RPMI 5 mM glucose + 10% FBS, 1.71 µM
# [20] = RPMI 5 mM glucose + 10% FBS, 5.12 µM
# [21] = RPMI 5 mM glucose + 10% FBS, 15.4 µM
# [22] = RPMI 5 mM glucose + 10% FBS, 46.1 µM
# [23] = RPMI 5 mM glucose + 10% dialyzed FBS, 0.000781 µM
# [24] = RPMI 5 mM glucose + 10% dialyzed FBS, 0.00234 µM
# [25] = RPMI 5 mM glucose + 10% dialyzed FBS, 0.00702 µM
# [26] = RPMI 5 mM glucose + 10% dialyzed FBS, 0.0211 µM
# [27] = RPMI 5 mM glucose + 10% dialyzed FBS, 0.0632 µM
# [28] = RPMI 5 mM glucose + 10% dialyzed FBS, 0.19 µM
# [29] = RPMI 5 mM glucose + 10% dialyzed FBS, 0.569 µM
# [30] = RPMI 5 mM glucose + 10% dialyzed FBS, 1.71 µM
# [31] = RPMI 5 mM glucose + 10% dialyzed FBS, 5.12 µM
# [32] = RPMI 5 mM glucose + 10% dialyzed FBS, 15.4 µM
# [33] = RPMI 5 mM glucose + 10% dialyzed FBS, 46.1 µM
Compound,cell viability [1] [%],cell viability [2] [%],cell viability [3] [%],cell viability [4] [%],cell viability [5] [%],cell viability [6] [%],cell viability [7] [%],cell viability [8] [%],cell viability [9] [%],cell viability [10] [%],cell viability [11] [%],cell viability [12] [%],cell viability [13] [%],cell viability [14] [%],cell viability [15] [%],cell viability [16] [%],cell viability [17] [%],cell viability [18] [%],cell viability [19] [%],cell viability [20] [%],cell viability [21] [%],cell viability [22] [%],cell viability [23] [%],cell viability [24] [%],cell viability [25] [%],cell viability [26] [%],cell viability [27] [%],cell viability [28] [%],cell viability [29] [%],cell viability [30] [%],cell viability [31] [%],cell viability [32] [%],cell viability [33] [%]
OC(=O)C(CC/1=C/C(=O)NC2=CC=CC=C12)NC(=O)C3=CC=C(Cl)C=C3 (stereo unspecified),111,118,120,123,123,125,124,128,122,126,125,109,115,119,117,131,122,128,121,128,132,141,120,122,129,130,139,135,135,128,130,124,133
Cc1csc(NC(=O)c2sc3nc4c(c(C(F)(F)F)c3c2N)CCC4)n1,88.3,102,98.1,98,94.4,93.8,95,91.3,90.3,84.5,83.4,87.2,100,94,92.1,88.6,91.1,98.7,90.1,88.1,79.2,86.5,82.7,83.3,81.6,84.3,89.4,86.4,88.6,78.2,84.9,69.9,73.6
